In this assay the target is purified PARP protein (Homo sapiens, UniProt P09874). Nature of the assay: PARP enzyme inhibition assay. Format: biochemical. To be noted: 20 nM purified PARP (5 nM for tight-binding inhibitors), 500 μM NAD+, 25° C.; several values in one cell = repeat determinations; read-out: Inhibition Constant Ki.

SMILES strings stand for the structures. “And” between values parts separate entries of the source, which are not always exact repeats. Equal values may be shown once. Where a name gives a salt, the structure may show the parent alone.

Chain of purified PARP protein (P09874 whole entry): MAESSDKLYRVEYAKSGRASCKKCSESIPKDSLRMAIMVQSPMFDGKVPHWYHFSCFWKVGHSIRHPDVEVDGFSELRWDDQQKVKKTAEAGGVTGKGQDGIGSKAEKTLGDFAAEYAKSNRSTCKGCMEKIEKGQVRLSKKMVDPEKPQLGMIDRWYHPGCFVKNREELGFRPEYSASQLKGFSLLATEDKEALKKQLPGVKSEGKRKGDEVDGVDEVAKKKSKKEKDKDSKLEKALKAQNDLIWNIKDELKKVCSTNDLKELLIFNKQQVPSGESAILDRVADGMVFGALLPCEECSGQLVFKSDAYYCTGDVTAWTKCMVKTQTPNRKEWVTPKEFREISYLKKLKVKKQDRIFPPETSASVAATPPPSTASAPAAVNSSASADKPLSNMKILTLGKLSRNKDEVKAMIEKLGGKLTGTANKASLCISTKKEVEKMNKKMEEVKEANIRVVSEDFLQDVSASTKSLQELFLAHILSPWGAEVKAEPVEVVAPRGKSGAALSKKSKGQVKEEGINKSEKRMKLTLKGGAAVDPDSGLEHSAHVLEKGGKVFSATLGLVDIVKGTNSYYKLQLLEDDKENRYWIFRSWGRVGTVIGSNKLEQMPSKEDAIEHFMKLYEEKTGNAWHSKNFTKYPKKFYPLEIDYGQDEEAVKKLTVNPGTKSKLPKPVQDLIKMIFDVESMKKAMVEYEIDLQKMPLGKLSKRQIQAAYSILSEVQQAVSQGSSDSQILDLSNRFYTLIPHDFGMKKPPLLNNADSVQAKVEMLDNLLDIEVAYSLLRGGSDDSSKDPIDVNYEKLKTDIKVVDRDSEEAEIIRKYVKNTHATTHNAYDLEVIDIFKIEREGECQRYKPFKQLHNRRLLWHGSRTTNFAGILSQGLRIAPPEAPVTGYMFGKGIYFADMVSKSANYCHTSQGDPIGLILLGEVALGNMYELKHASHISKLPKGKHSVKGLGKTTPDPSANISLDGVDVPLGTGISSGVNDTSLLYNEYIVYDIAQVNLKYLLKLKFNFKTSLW

In general, Ki refers to the dissociation constant of the complex between target and ligand, obtained from inhibition or displacement. For the molecule `COc1ccc(C2CNC(=O)c3cccc4[nH]c(=O)n2c34)cc1` (racemic) [Example 53, (RS)-(±)-9-(4-Methoxy-phenyl)-8,9-dihydro-2H,7H-2,7,9a-triaza-benzo[cd]azulene-1,6-dione], the inhibitory constant (Ki) worked out at 1800 nM.

Take `COc1ccc(C2CNC(=O)c3cccc4nc(-c5ccc(Cl)cc5)n2c34)cc1` (racemic) [Example 54, (RS)-(±)-1-(4-Chloro-phenyl)-9-(4-methoxy-phenyl)-8,9-dihydro-7H-2,7,9a-triaza-benzo[cd]azulen-6-one]: the Ki stood at 600 nM.

With `O=C1NCCn2c(-c3ccco3)nc3cccc1c32` [Example 20, 1-Furan-2-yl-8,9-dihydro-7H-2,7,9a-triaza-benzo[cd]azulen-6-one], the Ki came to 11.9 nM.

For the molecule `O=C1NCCn2c(Cc3ccccc3)nc3cccc1c32` [Example 21, 1-Benzyl-8,9-dihydro-7H-2,7,9a-triaza-benzo[cd]azulen-6-one], the Ki is 13.7 nM and 13 nM.

Regarding `O=C1NCCn2c(C3CCCCC3)nc3cccc1c32` [Example 24, 1-Cyclohexyl-8,9-dihydro-7H-2,7,9a-triaza-benzo[cd]azulen-6-one], the Ki turned out to be 29 nM.

With `O=C1NCCn2c(S)nc3cccc1c32` [Example 28, 1-Mercapto-8,9-dihydro-7H-2,7,9a-triaza-benzo[cd]azulen-6-one], the Ki worked out at 10 nM.

As to `O=C1NCCn2c(-c3ccccc3)cc3cccc1c32` [Example 33, 6-Phenyl-3,4-dihydro-2H-[1,4]diazepino[6,7,1-hi]indol-1-one], the inhibition constant Ki turned out to be 14.3 nM.

For the molecule `O=Cc1c(-c2ccc(Cl)cc2)n2c3c(cccc13)C(=O)NCC2` [Example 38, 6-(4-Chloro-phenyl)-1-oxo-1,2,3,4-tetrahydro-[1,4]diazepino[6,7,1-hi]indole-7-carboxaldehyde], the Ki was determined as 43 nM.

As to `O=C1NCCN2CCc3cccc1c32` [Example 41, 3,4,6,7-Tetrahydro-2H-[1,4]diazepino[6,7,1-hi]indol-1-one, reference compound], the Ki was 54 nM and 60 nM.

Consider `COC(=O)c1cn2c3c(cccc13)C(=O)NCC2` [Example 44], for which the Ki was 900 nM.

Regarding `O=Cc1cn2c3c(cccc13)C(=O)NCC2` [Example 45, 1-Oxo-1,2,3,4-tetrahydro-[1,4]diazepino[6,7,1-hi]indole-7-carbaldehyde], the Ki is 167 nM and 185 nM.

In the case of `Cc1cn2c3c(cccc13)C(=O)NCC2` [Example 49, 7-Methyl-3,4-dihydro-2H-[1,4]diazepino[6,7,1-hi]indol-1-one], the Ki is 122 nM.

With `Cc1c(-c2cccc(C(F)(F)F)c2)n2c3c(cccc13)C(=O)NCC2` [Example 52, 6-(3-Trifluoromethyl-phenyl)-7-methyl-3,4-dihydro-2H-[1,4]diazepino[6,7,1-hi]indol-1-one], the Ki is 79 nM.

Take `O=C1NCCn2c(-c3ccc(CO)cc3)nc3cccc1c32` [Example 58a, 1-(4-hydroxymethyl-phenyl)-8,9-dihydro-7H-2,7,9a-triaza-benzo[cd]azulen-6-one]: the Ki was found to be 4.2 nM.

`O=C1NCCn2c(-c3ccc(-c4ccc(Cl)cc4)o3)nc3cccc1c32` [Example 96, 1-[5-(4-Chlorophenyl)-furan-2-yl]-8,9-dihydro-7H-2,7,9a-triaza-benzo[cd]azulen-6-one]: the Ki was determined as 10 nM.

Regarding `CN(C)CCCOc1ccc(-c2nc3cccc4c3n2CCNC4=O)cc1` [Example 121, 1-[4-(3-Dimethylamino-propoxy)-phenyl]-8,9-dihydro-7H-2,7,9a-triaza-benzo[cd]azulen-6-one], the Ki came to 4 nM.

In the case of `C[N+](C)([O-])Cc1ccc(-c2nc3cccc4c3n2CCNC4=O)cc1` [Example 131], the Ki turned out to be 22 nM.

As for `CC(C)(C)OC(=O)N1CCCC(c2ccc(-c3nc4cccc5c4n3CCNC5=O)cc2)C1` (stereo not shown) [Example 143, 3-[4-(6-oxo-6,7,8,9-Tetrahydro-2,7,9a-triaza-benzo[cd]azulen-1-yl)-phenyl]-piperidine-1-carboxylic Acid t-Butyl Ester], the Ki came out at 22 nM.

For `Nc1nc2cccc3c2n1CCNC3=O` [Example 146, 1-Amino-8,9-dihydro-7H-2,7,9a-triaza-benzo[cd]azulen-6-one Hydrochloride], the Ki is 35 nM.

With `O=C1NCCn2c(-c3ccc(C4CCCCN4CC4CC4)cc3)nc3cccc1c32` (stereo not shown) [Example 150, 1-[4-(1-Cyclopropylmethyl-piperidin-2-yl)-phenyl]-8,9-dihydro-7H-2,7,9a-triaza-benzo[cd]azulen-6-one], the Ki was found to be 5 nM.

As for `N/N=C(\N)c1c(-c2ccc(F)cc2)n2c3c(cccc13)C(=O)NCC2` [Example 156, 7-Formyl-6-(4-fluorophenyl)-1-oxo-3,4-dihydro-[1,4]diazepino[6,7,1-hi]indole Amidrazone Hydrochloride], the Ki came out at 57 nM.

For `O=C1NCCn2c(-c3ccc(CN4CCC(O)C4)cc3)nc3cc(F)cc1c32` (stereo not shown) [Example 172, 4-Fluoro-1-[4-(3-hydroxy-pyrrolidin-1-ylmethyl)-phenyl]-8,9-dihydro-7H-2,7,9a-triaza-benzo[cd]azulen-6-one], the Ki was found to be 4.6 nM.

Turning to `O=C1NCCn2c(-c3ccc(CN4CCC[C@@H]4CO)cc3)nc3cccc1c32` [Example 173, 1-[4-((2R)-2-Hydroxymethyl-pyrrolidin-1-ylmethyl)-phenyl]-8,9-dihydro-7H-2,7,9a-triaza-benzo[cd]azulen-6-one], the Ki was found to be 6.3 nM.

Turning to `O=C1NCCn2c(-c3ccc(CN4CCCC(CO)C4)cc3)nc3cccc1c32` (stereo not shown) [Example 175, 1-[4-(3-Hydroxymethyl-piperidin-1-ylmethyl)-phenyl]-8,9-dihydro-7H-2,7,9a-triaza-benzo[cd]azulen-6-one], the Ki amounted to 6.6 nM.

On to `CN(Cc1ccc(-c2nc3cccc4c3n2CCNC4=O)cc1)CC(O)CO` (stereo not shown) [Example 176, 1-(4-{[(2,3-Dihydroxy-propyl)-methyl-amino]-methyl}-phenyl)-8,9-dihydro-7H-2,7,9a-triaza-benzo[cd]azulen-6-one], for which the Ki was found to be 9 nM.

On to `C=CCN1CCN(Cc2ccc(-c3nc4cccc5c4n3CCNC5=O)cc2)CC1` [Example 178, 1-[4-(4-Allyl-piperazin-1-ylmethyl)-phenyl]-2,7,8,9-tetrahydro-2,7,9a-triaza-benzo[cd]azulen-6-one], for which the Ki worked out at 12 nM.

On to `CN(CCc1ccccc1)Cc1ccc(-c2nc3cccc4c3n2CCNC4=O)cc1` [Example 179, 1-{4-[(Methyl-phenethyl-amino)-methyl]-phenyl}-2,7,8,9-tetrahydro-2,7,9a-triaza-benzo[cd]azulen-6-one], for which the Ki was 5.6 nM.

For the molecule `CCCCN(CCO)Cc1ccc(-c2nc3cccc4c3n2CCNC4=O)cc1` [Example 180, 1-(4-{[Butyl-(2-hydroxy-ethyl)-amino]-methyl}-phenyl)-2,7,8,9-tetrahydro-2,7,9a-triaza-benzo[cd]azulen-6-one], the Ki worked out at 7.4 nM.

Turning to `O=C1NCCn2c(-c3ccc(CN4CCC[C@H]4CO)cc3)nc3cccc1c32` [Example 181, 1-[4-((2S)-2-Hydroxymethyl-pyrrolidin-1-ylmethyl)-phenyl]-2,7,8,9-tetrahydro-2,7,9a-triaza-benzo[cd]azulen-6-one], the Ki was found to be 3.9 nM.

Turning to `O=C1NCCn2c(-c3ccc(CN4CC=CCC4)cc3)nc3cccc1c32` [Example 182, 1-[4-(3,6-Dihydro-2H-pyridin-1-ylmethyl)-phenyl]-2,7,8,9-tetrahydro-2,7,9a-triaza-benzo[cd]azulen-6-one], the Ki amounted to 4.7 nM.

Take `O=C1NCCn2c(-c3ccc(CNCCc4ccccc4)cc3)nc3cccc1c32` [Example 183, 1-[4-(Phenethylamino-methyl)-phenyl]-2,7,8,9-tetrahydro-2,7a-triaza-benzo[cd]azulen-6-one]: the Ki was 8 nM.

Consider `O=C1NCCn2c(-c3ccc(CNCCc4ccc(F)cc4)cc3)nc3cccc1c32` [Example 185, 1-(4-{[2-(4-Fluoro-phenyl)-ethylamino]-methyl}-phenyl)-2,7,8,9-tetrahydro-2,7,9a-triaza-benzo[cd]azulen-6-one], for which the Ki amounted to 5.6 nM.

Turning to `CC(C)CN(C)Cc1ccc(-c2nc3cccc4c3n2CCNC4=O)cc1` [Example 187, 1-{4-[(Isobutyl-methyl-amino)-methyl]-phenyl}-8,9-dihydro-7H-2,7,9a-triaza-benzo[cd]azulen-6-one], the Ki came out at 7 nM.

Take `O=C1NCCn2c(-c3ccc(CNC4CCC4)cc3)nc3cccc1c32` [Example 188, 1-(4-Cyclobutylaminomethyl-phenyl)-8,9-dihydro-7H-2,7,9a-triaza-benzo[cd]azulen-6-one]: the Ki was 4.8 nM.

Consider `O=C1NCCn2c(-c3ccc(CNCc4cccs4)cc3)nc3cccc1c32` [Example 189, 1-(4-{[(Thiophen-2-ylmethyl)-amino]-methyl}-phenyl)-8,9-dihydro-7H-2,7,9a-triaza-benzo[cd]azulen-6-one], for which the Ki came to 5.1 nM.

In the case of `CCCN(CCC)Cc1ccc(-c2nc3cccc4c3n2CCNC4=O)cc1` [Example 190, 1-(4-Dipropylaminomethyl-phenyl)-8,9-dihydro-7H-2,7,9a-triaza-benzo[cd]azulen-6-one], the Ki was found to be 8.1 nM.

Turning to `O=C1NCCn2c(-c3ccc(CNCc4ccc5c(c4)OCO5)cc3)nc3cccc1c32` [Example 191, 1-(4-{[(Benzo[1,3]dioxol-5-ylmethyl)-amino]-methyl}-phenyl)-8,9-dihydro-7H-2,7,9a-triaza-benzo[cd]azulen-6-one], the Ki stood at 4.3 nM.

As for `O=C1NCCn2c(-c3ccc(CNC4CCc5ccccc54)cc3)nc3cccc1c32` (stereo not shown) [Example 192, 1-[4-(Indan-1-ylaminomethyl)-phenyl]-8,9-dihydro-7H-2,7,9a-triaza-benzo[cd]azulen-6-one], the Ki stood at 4.5 nM.

Consider `CCOC(=O)CCN(Cc1ccc(-c2nc3cccc4c3n2CCNC4=O)cc1)Cc1ccco1` [Example 193, 3-{[4-(6-oxo-6,7,8,9-Tetrahydro-2,7,9a-triaza-benzo[cd]azulen-1-yl)-benzyl]-furan-2-ylmethyl-amino}-propionic Acid Ethyl Ester], for which the Ki was determined as 11 nM.

Regarding `CN1CCCC1CCNCc1ccc(-c2nc3cccc4c3n2CCNC4=O)cc1` (stereo not shown) [Example 194, 1-(4-{[2-(1-Methyl-pyrrolidin-2-yl)-ethylamino]-methyl}-phenyl)-8,9-dihydro-7H-2,7,9a-triaza-benzo[cd]azulen-6-one], the Ki was 6.2 nM.
